Several values for one entry are separate records, joined by “and”; a condition that tells them apart may be missing. Identical values can stand only once. Like-named read-outs stand apart in the source and are kept apart here. Values belong to the compound of their own block, whether it stands above or below them.
What was measured:
[1] = Release of mother compound from orally administered prodrug, plasma level (Biological Example 4); type: in vivo, Sprague Dawley rats; conditions: oral Example 7 0.027 mmol/kg in propylene glycol, released Example 6 assayed
Description: The release of a compound of Formula I from an orally administered prodrug of Formula II was monitored in rats. The compound of Example 7 was made up in a propylene glycol vehicle and orally administered to paired fasted male Sprague Dawley rats at a dose corresponding to 0.027 mmol/kg. At the indicated time intervals, 0.2 ml blood was collected from a catheter implanted in the […] jugularis, centrifuged and frozen for later analysis. The released drug of Formula I (Example 6) was assayed by HPLC.

[2] = Bioavailability in different species, plasma level of mother compound (Biological Example 7); type: in vivo, cynomolgus monkeys; conditions: monkey, Example 12 0.026 mmol/kg, acacia/Tween
Description: Monkeys were fasted for 12 hours prior to oral administration but had free access to water. The test compound was delivered via an infant nasogastric feeding tube. After 6 hours the monkeys received an apple.
(§1) A prodrug of the invention of Formula II (Example 12) was administered at the same dose (0.026 mmol/kg) and in the same vehicle (10% acacia and 1% Tween in water) to rats and cynomolgus monkeys. Plasma levels of the mother compound of Formula I (Example 10) was measured as a function of time.

[3] = as above; type: in vivo; conditions: rat, Example 12 0.026 mmol/kg, acacia/Tween
Description: Each substance was administered to duplicate rats.
as §1
The corresponding data for the compound of Example 28 (rat: acacia/Tween, monkey:propylene glycol) are shown in Table 5A: […]

[4] = for plasma level of mother compound: 0.027 mmol/kg
Description: The rats used in pharmacokinetic examples were male Sprague-Dawley, with a weight about 200–250 g. The rats were fasted for at least 16 hours before the experiment, but had free access to water. The day before the experiment the rats were anaesthetized using a mixture of Efrane®, laughing gas and oxygen. A catheter was introduced into the vena jugularis. On the day of the experiment the weights of the rats were noted. The animals were shortly anaesthesized before the oral dose was given or the iv dose injected into the back of the neck. Each substance was administered to duplicate rats.
Compounds were dissolved in DMSO for intravenous administration.
The blood samples were centrifuged infectious agents neutralised with 1% SDS/64°/20 min and plasma stored at −20° C.
Plasma samples are prepared as follows: 40–100 μl of plasma is mixed with an equal volume of acetonitrile (10 seconds, Vibrofex). The sample is centrifuged (2 min, 14000 RPM) and 30 μl of the supernantant is injected into an HPLC system, as follows.
The vehicle was 10% acacia and 1% Tween in water or propylene glycol (asterisked).

[5] = tested on: HIV-1 IIIB; assay: Time to resistance, weekly passage in MT4 cells (Biological Example 2); type: cell-based; conditions: growth of viral resistance against time, FIG. 1, versus closest Santa Fe compound
Description: 2×10^4 MT4 cells per well in a microtitre plate are infected with 5–10 TCID50 of HIV-1 IIIB. The compounds being tested are added at concentrations around ED50 using 8 duplicates per concentration. After 6 days of incubation the RT activity in 10 μl supernatent is measured.
The following procedure is followed at subsequent passages of the cultures once per week.: Virus produced at the concentration of test compound showing >50% of the RT activity of untreated infected cells (SIC, Starting Inhibitory Concentration) are passaged to fresh MT4 cells. 15 μl supernatent from each of the eight duplicates are transferred to cells without the test compound (control) and to cells with test compound at the same concentration, and additionally two respectively fivefold higher concentrations. (See Table 2 below)
When viral growth is permitted at the highest non-toxic concentration (5–40 μM), 2–4 parallel wells are collected and expanded to give material for sequence analysis and cross-wise resistance.
FIG. 1 plots the growth of viral resistance for a compound of the invention (Example 8) against time. Also plotted is the corresponding curve for the closest Santa Fe compound, mentioned above.

[6] = biological target: T1, HIV reverse transcriptase (Human immunodeficiency virus type 1 group M subtype B, UniProt P04585); assay: Binding kinetics by surface plasmon resonance (Biological Example 10); conditions: dissociation phase, 25° C., FIG. 3, versus prior art Santa Fe compound
T1 construct: made in house
Excerpt: The rate of association and dissociation of an NNRTI on the target enzyme can be directly assayed by surface plasmon resonance methodology, wherein reverse transcriptase is immobilized on the surface of a chip and the binding or dissociation of the putative inhibitor is monitored by observing the changes in refractive index caused by the concomitant increase or decrease in chip mass. A compound of the invention (Example 8) was compared to the closest prior art compound from Santa Fe, as depicted above. Experiments were performed on a BIACORE® 2000 (Biacore AB, Uppsala, Sweden), using BIAEVALUATION® software (ver 3.0) for evaluation of data. The binding of the small analyte (NNRTI) to the much larger enzyme results in binding responses in the range of 10–20 RU. […] During the dissociation phase there is insignificant change in bulk refractive index, thus the binding of the different substances have been evaluated during this phase. […]
Interaction with inhibitors: Stock solutions of inhibitors (1 mg/ml in DMSO) were dissolved in RT running buffer (10 mM Hepes pH 7.6; 4 mM MgCl2; 0.25 mM spermine; 40 mM KCl; 0.5% TRITON® X-100; 3% DMSO; 0.5% fetal calf serum) to a concentration of […]. Binding of substance to the RT was analysed by injection of […] of the diluted substance, the flow rate was […] and the temperature 25° C. […]

[7] = tested on: HIV; conditions: after only four weeks of therapy, virus isolated from patient serum; cited from earlier work

plasma level of mother compound ([1]; 30 min, individual rats): 240 ng/mL and 350 ng/mL | plasma level of mother compound ([1]; 60 min): 180 ng/mL and 280 ng/mL | plasma level of mother compound ([1]; 120 min): 130 ng/mL and 170 ng/mL | plasma level of mother compound ([1]; 240 min): 70 ng/mL and 120 ng/mL | plasma level of mother compound ([1]; 360 min): 50 ng/mL and 70 ng/mL
Compound: CCC(=O)c1ccc(F)c([C@H]2C[C@H]2NC(=O)Nc2ccc(C#N)cn2)c1OC(=O)c1cccc(N)c1 (relative stereo) [Example 7, (1R, 2R)-N-[cis-2-(2-(3-aminophenylcarbonyloxy)-6-fluoro-3-propionylphenyl)-cyclopropyl]-N′-(5-cyanopyrid-2-yl)-urea]

plasma level of mother compound ([2]; 45 min, mother compound Example 10): 80 ng/mL and 40 ng/mL | plasma level of mother compound ([2]; 90 min): 200 ng/mL and 260 ng/mL | plasma level of mother compound ([2]; 180 min): 1000 ng/mL and 550 ng/mL | plasma level of mother compound ([2]; 240 min): 720 ng/mL and 540 ng/mL | plasma level of mother compound ([2]; 360 min): 380 ng/mL and 390 ng/mL | plasma level of mother compound ([2]; 600 min): 130 ng/mL and 100 ng/mL | plasma level of mother compound ([2]; 24 h): 30 ng/mL | plasma level of mother compound ([3]; 30 min, mother compound Example 10): 90 ng/mL and 50 ng/mL | plasma level of mother compound ([3]; 60 min): 100 ng/mL and 70 ng/mL | plasma level of mother compound ([3]; 120 min): 90 ng/mL and 80 ng/mL | plasma level of mother compound ([3]; 180 min): 80 ng/mL | plasma level of mother compound ([3]; 240 min): 60 ng/mL and 50 ng/mL
Compound: CCC(=O)c1ccc(F)c([C@@H]2C[C@@H]2NC(=O)Nc2ccc(Br)cn2)c1OC(=O)c1cccc(N)c1 (relative stereo) [Example 12, (1S, 2S)-N-[cis-2-(2-(3-aminophenylcarbonyloxy)-6-fluoro-3-propionylphenyl)cyclopropyl]-N′-(5-bromopyrid-2-yl)-urea]

Compound: CCC(=O)c1ccc(F)c([C@@H]2C[C@@H]2NC(=O)Nc2ccc(C#N)cn2)c1OCOC(=O)c1ccc(O)cc1 (relative stereo) [Example 37, (1S, 2S)-N-[cis-2-(6-fluoro-2-O-3-propionylphenyl)-cyclopropyl]-N′-[2-(5-cyanopyridyl)]urea-O-methylene-4-hydroxybenzoate]
plasma level of mother compound ([4]; propylene glycol (asterisked), 30 min): 234 ng/mL and 137 ng/mL | plasma level of mother compound ([4]; propylene glycol, 60 min): 273 ng/mL and 189 ng/mL | plasma level of mother compound ([4]; propylene glycol, 120 min): 111 ng/mL and 133 ng/mL | plasma level of mother compound ([4]; propylene glycol, 240 min): 56 ng/mL and 45 ng/mL | plasma level of mother compound ([4]; propylene glycol, 360 min): 54 ng/mL and 56 ng/mL | absolute oral bioavailability ([4]; determined relative to the iv dose, rats): 28–33%

Compound: CCC(=O)c1ccc(F)c([C@@H]2C[C@@H]2NC(=O)Nc2ccc(C#N)cn2)c1O (stereo in doubt) [Example 8, (1 S,2S)-N-(cis-2-(6-fluoro-2-hydroxy-3-propionoylphenyl)-cyclopropyl)-N′-(5-cyanopyrid-2-yl)-urea]
rate of resistance development [5]: significantly slower rate of resistance development | dissociation rate from reverse transcriptase [6]: dissociating with the lowest rate

Compound: Cc1ccnc2c1NC(=O)c1cccnc1N2C1CC1 [nevirapine]
loss of sensitivity of patient virus to the drug versus virus from untreated patients [7]: 100 fold

Source: patent US7148243B2, “Antivirals” (Medivir AB, priority 1998, dated 2006)
